Values quoted from earlier work, collected in article PMC8452925, “Differential Modulation of the Voltage-Gated Na^+ Channel 1.6 by Peptides Derived From Fibroblast Growth Factor 14” (Frontiers in Molecular Biosciences, 2021).

Legend:
[1] = test system: FGF14^Y158A:Nav1.6 complex; settings: 50 µM, LCA, ref Singh et al., 2020
Protocol: In our previous study ([Singh et al., 2020]), we pharmacologically evaluated all three tetrapeptides at a single concentration of 50 µM using the LCA. […] For example, in the FGF14^V160A condition, all three peptides lost activity, whereas in the FGF14^Y158A condition, FLPK retaine ...

[2] = test system: human Nav1.6 with FGF14-GFP; settings: ref Singh et al., 2020
Description: (§1) To guide drug discovery efforts targeting the PPI interface between FGF14 and the CTD of Nav1.6, we previously developed and interrogated a homology model of the PPI interface to identify putative clusters of amino acids central to assembly of the complex ([Ali et al., 2014], [2016]). These investigations identified the Phe-Leu-Pro-Lys (FLPK) and Pro-Leu-Glu-Val (PLEV) motifs on the β12 sheet of FGF14, and the Glu-Tyr-Tyr-Val (EYYV) motif on the β8-β9 loop of FGF14, as being putatively essential for FGF14:Nav1.6 complex assembly ([Ali et al., 2014], [2016]). To investigate if short peptides de ...

MSNs of the NAc = settings: ref Singh et al., 2020
Description: as §1

FGF14:Nav1.6 complex = biological target: T1, FGF14:Nav1.6 complex (Homo sapiens, UniProt Q92915); settings: ref Singh et al., 2020
T1 construct: expressed in transfected cells
T1 sequence (Q92915 1-252 isoform Q92915-2): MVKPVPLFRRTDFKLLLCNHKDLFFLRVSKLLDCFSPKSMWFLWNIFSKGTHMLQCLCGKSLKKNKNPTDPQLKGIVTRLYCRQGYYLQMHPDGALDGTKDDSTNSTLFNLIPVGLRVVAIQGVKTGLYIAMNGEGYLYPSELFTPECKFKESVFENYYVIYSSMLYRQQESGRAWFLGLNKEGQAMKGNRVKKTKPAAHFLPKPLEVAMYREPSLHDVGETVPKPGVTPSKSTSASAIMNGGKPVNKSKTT
Description: as §1

## Phe-Leu-Pro-Lys [FLPK, tetrapeptide from the β12 sheet of FGF14, previously evaluated (Singh et al., 2020)]
[1]
  Effect on complex assembly with FGF14^Y158A (in words): retained its inhibitory effects on FGF14:Nav1.6 complex assembly
[2]
  Effect on FGF14-mediated regulation of Nav1.6 channel activity (in words): reversed FGF14-mediated regulatory effects on Nav1.6 channel activity
MSNs of the NAc
  Effect on neuronal excitability (in words): affected neuronal excitability of MSNs of the NAc
FGF14:Nav1.6 complex
  Effect on FGF14:Nav1.6 complex assembly (in words): inhibited FGF14:Nav1.6 complex assembly
